# Tests used:
# Type in all cases: physicochemical
# [1] = 6 month dry powder stability, Alpha Naphthol content by HPLC
# Description: (§1) NUC-3373 prepared according to Example 3 and Comparative Example 4 was packed into a transparent LDPE bag which was then filled with nitrogen and tied with a strip seal. This bag was then placed into another transparent LDPE bag which was also filled with nitrogen. A silica gel packet was placed between the two bags before the outermost bag was tied with a strip seal. These bags were then placed in a triple laminated sun light barrier bag which was sealed with a heat sealer. The bags were kept in a HDPE container.
# (§2) NUC-3373 was initially assayed by HPLC after manufacture (0 months) then after 1 and 2 and/or 3 and 6 months of storage at 2-8° C., 25° C. or 40° C.
# The Alpha Naphthol content of the same batches was also determined by HPLC. The levels of the alpha naphthol impurity is a key indicator of stability of the tested material.
# [2] = Solution stability, alpha naphthol (0.60 RRT) in DMA:Saline (80:20 v/v); set-up: 0.60 RRT (Alpha Naphthol): unit not given here; settings: 400 mg/mL in DMA:Saline (80:20 v/v)
# Method: Stability data is also provided in Table 4, which compares the levels of alpha naphthol (0.60 RRT) present in solutions of 400 mg/mL NUC-3373, prepared by Example 3 or 4, above, in DMA:Saline (80:20 v/v) at different temperatures measured over set periods of time. The tested solutions are suitable for infusion and injection and the temperatures and times measured are representative of the environments that solutions suitable for infusion and injection would typically be stored in.
# In Table 4 the two values provided for each temperature at each time period, separated by “/”, represent different preparations (samples) of that synthesis.
# [3] = 6 month dry powder stability, HPLC assay
# Description: as §1, §2
# [4] = After 1 month at 2-8° C., first preparation (before "/")
# [5] = After 1 month at 2-8° C., second preparation (after "/")
# [6] = After 1 month at 25 ± 5° C., first preparation (before "/")
# [7] = After 1 month at 25 ± 5° C., second preparation (after "/")
# [8] = After 3 months at 2-8° C., first preparation (before "/")
# [9] = After 3 months at 2-8° C., second preparation (after "/")
# [10] = After 3 months at 25 ± 5° C., first preparation (before "/")
# [11] = After 3 months at 25 ± 5° C., second preparation (after "/")
# [12] = After 6 months at 2-8° C., first preparation (before "/")
# [13] = After 6 months at 2-8° C., second preparation (after "/")
# [14] = After 6 months at 25 ± 5° C., first preparation (before "/")
# [15] = After 6 months at 25 ± 5° C., second preparation (after "/")
# [16] = After 9 months at 2-8° C., first preparation (before "/")
# [17] = After 9 months at 2-8° C., second preparation (after "/")
# [18] = After 9 months at 25 ± 5° C., first preparation (before "/")
# [19] = After 9 months at 25 ± 5° C., second preparation (after "/")
# [20] = After 15 days at 2-8° C., first preparation (before "/")
# [21] = After 15 days at 2-8° C., second preparation (after "/")
# [22] = After 15 days at 25 ± 5° C., first preparation (before "/")
# [23] = After 15 days at 25 ± 5° C., second preparation (after "/")
smiles,measurement,setting,value
"C[C@H](NP(=O)(OC[C@H]1O[C@@H](n2cc(F)c(=O)[nH]c2=O)CC1O)Oc1cccc2ccccc12)C(=O)OCc1ccccc1 (stereo partly drawn) [Example 3, Batch 1, 5-fluoro-2′-deoxyuridine-5′-O-[1-naphthyl (benzoxy-L-alaninyl)] phosphate]","Increase after 6 months, Alpha Naphthol by HPLC",[1]; 2-8 ° C.,None
same,Alpha Naphthol by HPLC (% w/w),"[1]; 2-8 ° C., 0 months",0.15 % w/w
same,Alpha Naphthol by HPLC (% w/w),"[1]; 2-8 ° C., 3 months",0.16 % w/w
same,Alpha Naphthol by HPLC (% w/w),"[1]; 2-8 ° C., 6 months",0.15 % w/w
same,"Increase after 6 months, Alpha Naphthol by HPLC",[1]; 25 ° C.,None
same,Alpha Naphthol by HPLC (% w/w),"[1]; 25 ° C., 0 months",0.15 % w/w
same,Alpha Naphthol by HPLC (% w/w),"[1]; 25 ° C., 3 months",0.15 % w/w
same,Alpha Naphthol by HPLC (% w/w),"[1]; 25 ° C., 6 months",0.14 % w/w
same,"Increase after 6 months, Alpha Naphthol by HPLC",[1]; 40 ° C.,None
same,Alpha Naphthol by HPLC (% w/w),"[1]; 40 ° C., 0 months",0.15 % w/w
same,Alpha Naphthol by HPLC (% w/w),"[1]; 40 ° C., 1 month",0.15 % w/w
same,Alpha Naphthol by HPLC (% w/w),"[1]; 40 ° C., 2 months",0.15 % w/w
same,Alpha Naphthol by HPLC (% w/w),"[1]; 40 ° C., 3 months",0.14 % w/w
same,Alpha Naphthol by HPLC (% w/w),"[1]; 40 ° C., 6 months",0.13 % w/w
same,0.60 RRT (Alpha Naphthol),[2]; [4],0.07/0.07
same,0.60 RRT (Alpha Naphthol),[2]; [5],0.07/0.07
same,0.60 RRT (Alpha Naphthol),[2]; [6],0.08/0.08
same,0.60 RRT (Alpha Naphthol),[2]; [7],0.08/0.08
same,0.60 RRT (Alpha Naphthol),[2]; [8],0.07/0.07
same,0.60 RRT (Alpha Naphthol),[2]; [9],0.07/0.07
same,0.60 RRT (Alpha Naphthol),[2]; [10],0.10
same,0.60 RRT (Alpha Naphthol),[2]; [11],0.11
same,0.60 RRT (Alpha Naphthol),[2]; [12],0.07
same,0.60 RRT (Alpha Naphthol),[2]; [13],0.08
same,0.60 RRT (Alpha Naphthol),[2]; [14],0.20
same,0.60 RRT (Alpha Naphthol),[2]; [15],0.22
same,0.60 RRT (Alpha Naphthol),[2]; [16],0.07
same,0.60 RRT (Alpha Naphthol),[2]; [17],0.08
same,0.60 RRT (Alpha Naphthol),[2]; [18],0.42
same,0.60 RRT (Alpha Naphthol),[2]; [19],0.38
same,0.60 RRT (Alpha Naphthol),[2]; [20],0.07/0.07
same,0.60 RRT (Alpha Naphthol),[2]; [21],0.07/0.07
same,0.60 RRT (Alpha Naphthol),[2]; [22],0.07
same,0.60 RRT (Alpha Naphthol),[2]; [23],0.08
same,0.60 RRT (Alpha Naphthol),[2]; Initial,0.07
same,"Decrease after 6 months, HPLC assay",[3]; 2-8 ° C.,None
same,HPLC assay (% w/w on anhydrous and solvent free basis),"[3]; 2-8 ° C., 0 months",100.4 % w/w
same,HPLC assay (% w/w on anhydrous and solvent free basis),"[3]; 2-8 ° C., 3 months",101.5 % w/w
same,HPLC assay (% w/w on anhydrous and solvent free basis),"[3]; 2-8 ° C., 6 months",100.4 % w/w
same,"Decrease after 6 months, HPLC assay",[3]; 25 ° C.,None
same,HPLC assay (% w/w on anhydrous and solvent free basis),"[3]; 25 ° C., 0 months",100.4 % w/w
same,HPLC assay (% w/w on anhydrous and solvent free basis),"[3]; 25 ° C., 3 months",101.1 % w/w
same,HPLC assay (% w/w on anhydrous and solvent free basis),"[3]; 25 ° C., 6 months",100.8 % w/w
same,"Decrease after 6 months, HPLC assay",[3]; 40 ° C.,None
same,HPLC assay (% w/w on anhydrous and solvent free basis),"[3]; 40 ° C., 0 months",100.4 % w/w
same,HPLC assay (% w/w on anhydrous and solvent free basis),"[3]; 40 ° C., 1 month",100.0 % w/w
same,HPLC assay (% w/w on anhydrous and solvent free basis),"[3]; 40 ° C., 2 months",101.5 % w/w
same,HPLC assay (% w/w on anhydrous and solvent free basis),"[3]; 40 ° C., 3 months",101.6 % w/w
same,HPLC assay (% w/w on anhydrous and solvent free basis),"[3]; 40 ° C., 6 months",100.7 % w/w
"C[C@H](NP(=O)(OC[C@H]1O[C@@H](n2cc(F)c(=O)[nH]c2=O)CC1O)Oc1cccc2ccccc12)C(=O)OCc1ccccc1 (stereo partly drawn) [Example 3, Batch 2, 5-fluoro-2′-deoxyuridine-5′-O-[1-naphthyl (benzoxy-L-alaninyl)] phosphate]","Increase after 6 months, Alpha Naphthol by HPLC",[1]; 2-8 ° C.,None
same,Alpha Naphthol by HPLC (% w/w),"[1]; 2-8 ° C., 0 months",0.44 % w/w
same,Alpha Naphthol by HPLC (% w/w),"[1]; 2-8 ° C., 3 months",0.46 % w/w
same,Alpha Naphthol by HPLC (% w/w),"[1]; 2-8 ° C., 6 months",0.43 % w/w
same,"Increase after 6 months, Alpha Naphthol by HPLC",[1]; 25 ° C.,None
same,Alpha Naphthol by HPLC (% w/w),"[1]; 25 ° C., 0 months",0.44 % w/w
same,Alpha Naphthol by HPLC (% w/w),"[1]; 25 ° C., 3 months",0.45 % w/w
same,Alpha Naphthol by HPLC (% w/w),"[1]; 25 ° C., 6 months",0.42 % w/w
same,"Increase after 6 months, Alpha Naphthol by HPLC",[1]; 40 ° C.,None
same,Alpha Naphthol by HPLC (% w/w),"[1]; 40 ° C., 0 months",0.44 % w/w
same,Alpha Naphthol by HPLC (% w/w),"[1]; 40 ° C., 1 month",0.44 % w/w
same,Alpha Naphthol by HPLC (% w/w),"[1]; 40 ° C., 2 months",0.42 % w/w
same,Alpha Naphthol by HPLC (% w/w),"[1]; 40 ° C., 3 months",0.42 % w/w
same,Alpha Naphthol by HPLC (% w/w),"[1]; 40 ° C., 6 months",0.38 % w/w
same,0.60 RRT (Alpha Naphthol),[2]; [4],0.02/0.02
same,0.60 RRT (Alpha Naphthol),[2]; [5],0.02/0.02
same,0.60 RRT (Alpha Naphthol),[2]; [6],0.04/0.04
same,0.60 RRT (Alpha Naphthol),[2]; [7],0.04/0.04
same,0.60 RRT (Alpha Naphthol),[2]; [8],0.02/0.02
same,0.60 RRT (Alpha Naphthol),[2]; [9],0.02/0.02
same,0.60 RRT (Alpha Naphthol),[2]; [10],0.11/0.11
same,0.60 RRT (Alpha Naphthol),[2]; [11],0.11/0.11
same,0.60 RRT (Alpha Naphthol),[2]; [12],0.03
same,0.60 RRT (Alpha Naphthol),[2]; [13],0.02
same,0.60 RRT (Alpha Naphthol),[2]; [14],0.34
same,0.60 RRT (Alpha Naphthol),[2]; [15],0.35
same,0.60 RRT (Alpha Naphthol),[2]; [16],0.03/0.03
same,0.60 RRT (Alpha Naphthol),[2]; [17],0.03/0.03
same,0.60 RRT (Alpha Naphthol),[2]; [18],0.89/0.89
same,0.60 RRT (Alpha Naphthol),[2]; [19],0.89/0.89
same,0.60 RRT (Alpha Naphthol),"[2]; After 12 months at 2-8° C., first preparation (before ""/"")",0.04/0.04
same,0.60 RRT (Alpha Naphthol),"[2]; After 12 months at 2-8° C., second preparation (after ""/"")",0.04/0.04
same,0.60 RRT (Alpha Naphthol),"[2]; After 12 months at 25 ± 5° C., first preparation (before ""/"")",1.60/1.60
same,0.60 RRT (Alpha Naphthol),"[2]; After 12 months at 25 ± 5° C., second preparation (after ""/"")",1.60/1.60
same,0.60 RRT (Alpha Naphthol),[2]; [20],0.01/0.01
same,0.60 RRT (Alpha Naphthol),[2]; [21],0.01/0.01
same,0.60 RRT (Alpha Naphthol),[2]; [22],0.03
same,0.60 RRT (Alpha Naphthol),[2]; [23],0.02
same,0.60 RRT (Alpha Naphthol),[2]; Initial,0.01
same,"Decrease after 6 months, HPLC assay",[3]; 2-8 ° C.,None
same,HPLC assay (% w/w on anhydrous and solvent free basis),"[3]; 2-8 ° C., 0 months",100.2 % w/w
same,HPLC assay (% w/w on anhydrous and solvent free basis),"[3]; 2-8 ° C., 3 months",101.3 % w/w
same,HPLC assay (% w/w on anhydrous and solvent free basis),"[3]; 2-8 ° C., 6 months",100.4 % w/w
same,"Decrease after 6 months, HPLC assay",[3]; 25 ° C.,None
same,HPLC assay (% w/w on anhydrous and solvent free basis),"[3]; 25 ° C., 0 months",100.2 % w/w
same,HPLC assay (% w/w on anhydrous and solvent free basis),"[3]; 25 ° C., 3 months",101.1 % w/w
same,HPLC assay (% w/w on anhydrous and solvent free basis),"[3]; 25 ° C., 6 months",100.7 % w/w
same,"Decrease after 6 months, HPLC assay",[3]; 40 ° C.,None
same,HPLC assay (% w/w on anhydrous and solvent free basis),"[3]; 40 ° C., 0 months",100.2 % w/w
same,HPLC assay (% w/w on anhydrous and solvent free basis),"[3]; 40 ° C., 1 month",99.7 % w/w
same,HPLC assay (% w/w on anhydrous and solvent free basis),"[3]; 40 ° C., 2 months",100.9 % w/w
same,HPLC assay (% w/w on anhydrous and solvent free basis),"[3]; 40 ° C., 3 months",101.5 % w/w
same,HPLC assay (% w/w on anhydrous and solvent free basis),"[3]; 40 ° C., 6 months",100.4 % w/w

# Reference: patent publication US20250296948A1, “SYNTHESIS OF NUCLEOSIDE DERIVATIVES” (Nucana plc, priority 2022, published 2025)
